Experimental data as given in patent publication US10160726B2, “Quinolone derivatives as antibacterials” (priority 2014, dated 2018).
≈ marks a conversion by molar mass, not a printed value.

How the values were obtained:
Type in all cases: cell-based
[1] = system: P. aeruginosa NB52023 (efflux deficient K1542, ΔmexX ΔmexB); assay: microbe, parasite or virus in culture; details: Pseudomonas aeruginosa, 20 h, read-out: Antibacterial activity (MIC) NB52023
[2] = system: P. aeruginosa NB52019 (wild-type PAO1); assay: MIC, broth microdilution (CLSI); details: Pseudomonas aeruginosa, PAO1, 20 h; read-out: Antibacterial activity (MIC) NB52019
[3] = system: S. aureus ATCC 29213 (NB01001); assay: MIC, broth microdilution (CLSI); details: Staphylococcus aureus, ATCC29213; S. aureus ATCC 29213; 35° C., 20 hours; read-out: Antibacterial activity (MIC) NB01001
[4] = system: E. coli ATCC 25922 (NB27001); assay: MIC, broth microdilution (CLSI); details: Escherichia coli, ATCC25922; E. coli ATCC 25922; 35° C., 20 hours; read-out: Antibacterial activity (MIC) NB27001
[5] = system: P. aeruginosa NB52023-CDK0006 (gyrA T83I, parC S87L); assay: microbe, parasite or virus in culture; details: Pseudomonas aeruginosa, 20 h, read-out: Antibacterial activity (MIC) NB52023-CDK0006
[6] = system: E. coli NB27177 (efflux deficient CGSC 11430, ΔtolC732::kan); assay: microbe, parasite or virus in culture; details: Escherichia coli, 20 h, read-out: Antibacterial activity (MIC) NB27177
[7] = system: S. aureus NB01006-AVR005 (gyrA S84L, grlA S80F, grlB E471K); assay: microbe, parasite or virus in culture; details: Staphylococcus aureus, 20 h, read-out: Antibacterial activity (MIC) NB01006-AVR005

Compound | MIC [1] [µg/mL] | MIC [2] [µg/mL] | MIC [3] [µg/mL] | MIC [4] [µg/mL] | MIC [5] [µg/mL] | MIC [6] [µg/mL] | MIC [7] [µg/mL]
Cc1c(N2CC[C@@H]([C@H](C)N)C2)c(F)cc2c(OCCN)cc(=O)n(C3CC3)c12 [Example 51, 4-(2-aminoethoxy)-7-((R)-3-((S)-1-aminoethyl)pyrrolidin-1-yl)-1-cyclopropyl-6-fluoro-8-methylquinolin-2(1H)-one] | 2 (≈ 5.15 µM) | 4 (≈ 10.3 µM) | 0.5 (≈ 1.29 µM) | 2 (≈ 5.15 µM) | 2 (≈ 5.15 µM) | 0.06 (≈ 0.154 µM) | 0.5 (≈ 1.29 µM)
Cc1c(N2CC[C@@H]([C@H](C)N)C2)c(F)cc2c(OCCNC(=N)N)cc(=O)n(C3CC3)c12 [Example 53, 1-(2-((7-((R)-3-((S)-1-aminoethyl)pyrrolidin-1-yl)-1-cyclopropyl-6-fluoro-8-methyl-2-oxo-1,2-dihydroquinolin-4-yl)oxy)ethyl)guanidine] | 4 (≈ 9.29 µM) | 16 (≈ 37.2 µM) | 0.5 (≈ 1.16 µM) | 4 (≈ 9.29 µM) | 4 (≈ 9.29 µM) | 0.125 (≈ 0.29 µM) | 0.5 (≈ 1.16 µM)
CC(=O)NCCOc1cc(=O)n(C2CC2)c2c(C)c(N3CC[C@@H]([C@H](C)N)C3)c(F)cc12 [Example 54, N-(2-((7-((R)-3-((S)-1-aminoethyl)pyrrolidin-1-yl)-1-cyclopropyl-6-fluoro-8-methyl-2-oxo-1,2-dihydroquinolin-4-yl)oxy)ethyl)acetamide] | > 32 | 32 (≈ 74.3 µM) | 8 (≈ 18.6 µM) | 32 (≈ 74.3 µM) | > 32 | 4 (≈ 9.29 µM) | 4 (≈ 9.29 µM)
Cc1c(N2CC[C@H](O)C2)c(F)cc2c(OCCN(C)C)cc(=O)n(C3CC3)c12 [Example 55, (S)-1-cyclopropyl-4-(2-(dimethylamino)ethoxy)-6-fluoro-7-(3-hydroxypyrrolidin-1-yl)-8-methylquinolin-2(1H)-one] | 32 (≈ 82.2 µM) | > 32 | 0.5 (≈ 1.28 µM) | 8 (≈ 20.5 µM) | 32 (≈ 82.2 µM) | 0.125 (≈ 0.321 µM) | 0.5 (≈ 1.28 µM)
Cc1c(N2CC[C@@H]([C@H](C)N)C2)c(F)cc2c(OCC(N)=O)cc(=O)n(C3CC3)c12 [Example 56, 2-((7-((R)-3-((S)-1-aminoethyl)pyrrolidin-1-yl)-1-cyclopropyl-6-fluoro-8-methyl-2-oxo-1,2-dihydroquinolin-4-yl)oxy)acetamide] | 16 (≈ 39.8 µM) | > 32 | 4 (≈ 9.94 µM) | 32 (≈ 79.5 µM) | > 32 | 2 (≈ 4.97 µM) | 4 (≈ 9.94 µM)
Cc1c(N2CC[C@@H]([C@H](C)N)C2)c(F)cc2c(OCCCC#N)cc(=O)n(C3CC3)c12 [Example 57, 4-((7-((R)-3-((S)-1-aminoethyl)pyrrolidin-1-yl)-1-cyclopropyl-6-fluoro-8-methyl-2-oxo-1,2-dihydroquinolin-4-yl)oxy)butanenitrile] | 16 (≈ 38.8 µM) | > 32 | 0.25 (≈ 0.606 µM) | 32 (≈ 77.6 µM) | > 32 | 0.25 (≈ 0.606 µM) | 0.25 (≈ 0.606 µM)
Cc1c(N2CC[C@@H]([C@H](C)N)C2)c(F)cc2c(OCCC/C(N)=N\O)cc(=O)n(C3CC3)c12 [Example 58, 4-((7-((R)-3-((S)-1-aminoethyl)pyrrolidin-1-yl)-1-cyclopropyl-6-fluoro-8-methyl-2-oxo-1,2-dihydroquinolin-4-yl)oxy)-N′-hydroxybutanimidamide] | 32 (≈ 71.8 µM) | > 32 | 4 (≈ 8.98 µM) | 32 (≈ 71.8 µM) | 32 (≈ 71.8 µM) | 1 (≈ 2.24 µM) | 2 (≈ 4.49 µM)
Cc1c(N2CC[C@@H]([C@H](C)N)C2)c(F)cc2c(OCCCC(=O)NO)cc(=O)n(C3CC3)c12 [Example 60, 4-((7-((R)-3-((S)-1-aminoethyl)pyrrolidin-1-yl)-1-cyclopropyl-6-fluoro-8-methyl-2-oxo-1,2-dihydroquinolin-4-yl)oxy)-N-hydroxybutanamide] | > 32 | > 32 | 8 (≈ 17.9 µM) | 32 (≈ 71.7 µM) | > 32 | 1 (≈ 2.24 µM) | 4 (≈ 8.96 µM)
Cc1c(N2CC[C@@H]([C@H](C)N)C2)c(F)cc2c(OCCCC(=O)O)cc(=O)n(C3CC3)c12 [Example 61, 4-((7-((R)-3-((S)-1-aminoethyl)pyrrolidin-1-yl)-1-cyclopropyl-6-fluoro-8-methyl-2-oxo-1,2-dihydroquinolin-4-yl)oxy)butanoic acid] | > 32 | 32 (≈ 74.2 µM) | > 32 | 32 (≈ 74.2 µM) | > 32 | > 32 | > 32
Cc1c(N2CC[C@@H]([C@H](C)N)C2)c(F)cc2c(OCCCc3n[nH]c(=O)o3)cc(=O)n(C3CC3)c12 [Example 65, 5-(3-((7-((R)-3-((S)-1-aminoethyl)pyrrolidin-1-yl)-1-cyclopropyl-6-fluoro-8-methyl-2-oxo-1,2-dihydroquinolin-4-yl)oxy)propyl)-1,3,4-oxadiazol-2(3H)-one] | > 32 | > 32 | 4 (≈ 8.48 µM) | 32 (≈ 67.9 µM) | > 32 | 4 (≈ 8.48 µM) | 2 (≈ 4.24 µM)
